In brackets after ≈: the same amount, converted by molar mass. Read-outs that look alike come from different tables or passages of the source.
What was measured:
[1] = test system: creatine phosphokinase elevation; conditions: in vivo; cited from earlier work
Method: The probability of Cmin ≥24.3 mg/L at 24 h was calculated for each scenario.

[2] = excretion primarily by the kidneys; cited from earlier work
[3] = test system: Pathogenic micro-organism (S. aureus, S. epidermidis, S. hominis, E. fecalis, S. sacrophyticus, S. lugdunensis); type: cell-based; conditions: e-test; median (IQR) of pathogens of the 46 patients (36/46 identified); mg/L
Method: Demographic (age, body weight and height), treatment (dose and co-administered medications) and clinical data (microbiological data, analytical and disease covariates) were collected at patient enrolment. Serum creatinine and serum albumin were measured on the day (if not available, the nearest day) of measurement of the drug concentration.

[4] = test system: plasma proteins (albumin and α-glycoprotein); conditions: cited from earlier work
Staphylococcus aureus = conditions: total AUC, MIC equal to 1 mg/L, cited from earlier work
[5] = Population pharmacokinetic model of daptomycin in patients with normal and impaired renal function (NONMEM)
Method: A prospective multi-center study in patients admitted to the General University Hospital of Castellón (Castellón, Spain) and the Arnau de Vilanova Hospital of Valencia (Valencia, Spain) was conducted. […] The exclusion criteria were patients with renal replacement therapy.
Five serial blood samples were collected from a peripheral vein from day 4 (steady state) at the pre-dose, 0.5, 1–2, 4–10 h after the infusion ended and before the next dose.
Precision and accuracy were assessed by performing replicate analysis of quality control samples against calibration standards. Intra- and inter-assay coefficients of the variation were always <10%.
All data analyses were performed based on the population approach with the software NONMEM® (Version 7.4; Icon Inc, PA, USA). The population PK parameters were estimated using the Stochastic Approximation of the Expectation Maximization and the Importance Sampling Estimation method. The Perl-Speaks-NONMEM program (version 4.8.1, Department of Pharmaceutical Biosciences, Uppsala University, Sweden) [33] and Pirana software (version 2.9.6, Pirana Software & Consulting BV) were used for model development and evaluation. Data processing and graphical analysis were conducted using R (version 4.0.0, http://cran.r-project.org, accessed on 14 April 2020) and R-Studio (version v2021.09.0+354).
(§1) This model assumes that Cbound is directly proportional to Cfree with no saturable mechanism. • Non-linear binding model with single site binding [38, 39]: (2) Ctotal=Cfree+Bmax·Cfree/(KD+Cfree) where Bmax (mg/L) represents the maximal binding capacity and KD (mg/L) is the equilibrium dissociation constant. • Non-linear binding model with multiple site binding [38, 40, 41] (3) Ctotal=Cfree+∑^ Bmax,i·Cfree/(KD,i+Cfree) where Bmax,i and KD,i represent the binding-dissociation parameters of the i th binding site of plasma proteins.
Inter-individual variability (IIV) associated with the PK model parameters was modeled exponentially, and the residual unexplained variability (RUV) was explored using the additive error model on the logarithmic scale. The significance of the non-diagonal elements of the Ω variance-covariance matrix was evaluated.
Once the base model was selected, a graphical exploration of the correlations between the PK parameters (when eta-shrinkage was less than 35%) [42] and covariates was performed. The continuous covariate included age, height, body weight, serum creatinine, creatinine clearance, and albumin. The categorical covariates were gender and statin co-administration. A numerical evaluation of the parameter-covariate relationship was performed manually in a univariate testing.
The model selection was based on the physiological and pharmacological rationale with the principle of parsimony [43]. A decrease in 3.84 points of the objective function value (OFV) provided by NONMEM® between two nested models differing in one parameter was considered significant at the 5% level, together with the visual inspection of the goodness of fit (GOF) [44] and normalized prediction distribution error (NPDE) plots [45].
A model evaluation [46, 47] was performed through prediction-corrected visual predictive checks (pc-VPC), [48] and a non-parametric bootstrap (n = 1000) was conducted to assess the statistical significance of the final parameter estimates.

[6] = non-parametric bootstrap n = 1000, median
[7] = population estimate, final model, unbound daptomycin, 46 patients

Excerpt for human plasma proteins: as §1

CCCCCCCCCC(=O)N[C@@H](Cc1c[nH]c2ccccc12)C(=O)N[C@H](CC(N)=O)C(=O)N[C@@H](CC(=O)O)C(=O)N[C@@H]1C(=O)NCC(=O)N[C@@H](CCCN)C(=O)N[C@@H](CC(=O)O)C(=O)N[C@H](C)C(=O)N[C@@H](CC(=O)O)C(=O)NCC(=O)N[C@H](CO)C(=O)N[C@@H]([C@H](C)CC(=O)O)C(=O)N[C@@H](CC(=O)c2ccccc2N)C(=O)O[C@@H]1C [daptomycin]
trough level (Cmin) associated with a 50% probability of creatine phosphokinase elevation [1]: ≥ 24300 ng/mL | eliminated in urine [2]: 54–78% | Bmax (maximal binding capacity) (human plasma proteins; in vivo): 160 mg/L | Bmax, bootstrap median (human plasma proteins; in vivo): 157 mg/L | KD, bootstrap median (human plasma proteins; [6]): 3.61 µg/mL (≈ 2.23 µM) | KD (equilibrium dissociation constant) (human plasma proteins; population estimate, single-site non-linear binding model, estimated from total concentrations, no free concentrations measured): 3.56 µg/mL (≈ 2.2 µM) | MIC micro-organism [3]: 0.5 (0.25, 0.5) | free fraction [4]: around 10% | reversibly bound to albumin and α-glycoprotein [4]: 90% | AUC with bactericidal effect (Staphylococcus aureus; ref 19): 761 mg·h/L | AUC with bacteriostatic effect (Staphylococcus aureus; ref 19): 465 mg·h/L | AUC with bactericidal effect (Staphylococcus aureus; ref 24, 51, 52): 666 mg·h/L | CL, bootstrap median [5, 6]: 7.01 L/h | Q, bootstrap median [5, 6]: 1.93 L/h | V1, bootstrap median [5, 6]: 0.97 L | Q (intercompartmental clearance) [5, 7]: 1.96 L/h | V1 (apparent volume of distribution of the unbound central compartment) [5, 7]: 0.95 L
